# Assay results as given in patent publication US20240384268A1, “Oligonucleotides” (Hudson Institute of Medical Research, priority 2021, published 2024).
# In the oligonucleotide strings, read from the 5' end, every base follows the letter of its sugar. An asterisk marks phosphorothioate; unmarked linkages are phosphodiester. Other units and linkages are bracketed, terminal groups are in braces. A string of capitals states the bases alone. m = 2'-O-methyl
# Molecular target: T1, human TLR7 (Homo sapiens, UniProt Q9NYK1)
# T1 construct: HA; host or cells: 293XL-hTLR7-HA (HEK293)
# T1 sequence (Q9NYK1 27-1049): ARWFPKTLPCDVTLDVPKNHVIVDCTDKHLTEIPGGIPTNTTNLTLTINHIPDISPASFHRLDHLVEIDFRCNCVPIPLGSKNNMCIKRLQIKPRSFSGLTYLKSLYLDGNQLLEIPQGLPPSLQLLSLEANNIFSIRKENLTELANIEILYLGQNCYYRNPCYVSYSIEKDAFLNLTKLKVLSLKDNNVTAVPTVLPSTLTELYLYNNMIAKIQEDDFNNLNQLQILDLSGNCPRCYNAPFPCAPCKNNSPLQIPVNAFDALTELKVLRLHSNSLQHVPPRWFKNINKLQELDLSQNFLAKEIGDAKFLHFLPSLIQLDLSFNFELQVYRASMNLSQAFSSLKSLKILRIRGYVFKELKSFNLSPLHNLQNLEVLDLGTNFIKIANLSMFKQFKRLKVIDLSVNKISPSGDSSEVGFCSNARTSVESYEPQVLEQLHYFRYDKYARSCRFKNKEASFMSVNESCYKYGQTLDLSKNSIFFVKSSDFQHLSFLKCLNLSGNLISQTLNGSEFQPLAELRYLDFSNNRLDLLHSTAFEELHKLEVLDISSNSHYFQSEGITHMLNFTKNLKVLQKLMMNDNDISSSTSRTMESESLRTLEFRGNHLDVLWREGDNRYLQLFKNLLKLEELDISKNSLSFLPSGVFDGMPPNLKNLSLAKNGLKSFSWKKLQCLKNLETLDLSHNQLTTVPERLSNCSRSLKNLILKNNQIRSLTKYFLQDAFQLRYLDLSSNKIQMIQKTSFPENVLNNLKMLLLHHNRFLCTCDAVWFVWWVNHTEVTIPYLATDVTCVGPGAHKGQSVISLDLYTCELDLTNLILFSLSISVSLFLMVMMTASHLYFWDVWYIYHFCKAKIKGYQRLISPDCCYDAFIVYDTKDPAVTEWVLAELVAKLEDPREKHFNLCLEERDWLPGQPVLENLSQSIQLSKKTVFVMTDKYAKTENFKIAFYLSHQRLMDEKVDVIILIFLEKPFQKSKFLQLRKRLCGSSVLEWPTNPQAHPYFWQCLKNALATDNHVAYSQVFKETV
# Assay: HEK-TLR7 NF-κB-luciferase reporter, R848 stimulation
# Assay type: cell-based
# Details: 3mer 2'OMe ASO at 400 nM; HEK-TLR7; value relative to Ligand only = 1.000, NT = 0.000
# Protocol: In such examples, inhibition of TLR7 activity can be identified by observation of an overall decreased TLR7 response of the cell population, or a lower proportion of cells having TLR7-positive activity as compared to positive control condition in which cells are treated with TLR7 agonist in the absence of the oligonucleotide (or in the presence of an appropriate control inhibitory agent). In one example, 293XLhTLR7 (referred to as HEK-TLR7) cells are transfected with pNF-κB-Luc4 reporter, incubated with an oligonucleotide, and then stimulated with R848. TLR7 activity can be determined by a luciferase assay, which measures activated NF-κB by luminescence. TLR7 activity can also be analysed by measuring cytokine levels, for example by ELISA. […] TLR7 activity may then be assessed by the gene or protein expression of TLR7-responsive genes, such as Tnfα and Oas3.
# For cGAS stimulations, cells were treated for indicated duration with ASOs, prior to transfection with ISD70 (human cells) or ISD45 (mouse cells) (the ASOs were not washed off prior to ISD transfection unless otherwise indicated). The cGAS ligands ISD45 (Stetson and Medzhitov, 2006) and ISD70 (also known as VACV-70 (Unterholzner et al., 2010)) (Table 1) were resuspended as follows: 5 1d of sense and 5 μl of antisense strands at 10 μg/μl were added to 90 μl PBS under sterile conditions, heated at 75° C. for 30 min, prior to letting cool down at room temperature and aliquoting (stock at 1 μg/1 l). The ISDs were transfected at a concentration of […] at a ratio of 1 μg:1 μl with Lipofectamine 2000 in Opti-MEM (Thermo Fisher Scientific). HEK-TLR3, HEK-TLR7 and […] were treated with indicated concentration of ASOs for 20-50 min, prior to stimulation with poly(I:C) (Invivogen), R848 (Invivogen), Motolimod (MedChemExpress) and the Class B CpG oligonucleotides ODN 2006 (synthesised by IDT and resuspended in RNase-free TE buffer [Table 1]), respectively. The TLR2/1 agonist PAM3CSK4 (Invivogen), the TLR4 agonist lipopolysaccharide (Invivogen), the Class B CpG oligonucleotides ODN 1826 (synthesised by IDT and resuspended in RNase-free TE buffer), the mouse Sting agonist DMXAA (Cayman) and the human STING agonist (compound #3 from (Raanjulu et al., 2018), referred to as GSK herein—kind gift from Cancer Therapeutics CRC, Australia) were used at indicated concentrations. Aspirin (Sigma—A2093) was resuspended in pure medium to 10 mM, filter sterilised and added to the cells at 2 mM final. All ASOs were synthesised by Integrated DNA Technologies (IDT), and resuspended in RNase-free TE buffer, pH 8.0 (Thermo Fisher Scientific). Cell viability was assessed by adding 1× fresh resazurin solution to the wells (10λ solution made up with 7 mg resazurin [Sigma—R7017] dissolved in 3.5 ml PBS, sterile filtered at […]) for 4 h, prior to reading at with a Fluostar OPTIMA (BMG LABTECH) plate-reader (fluorescence: Excitation 535 nm, Emission 590); wells with medium only and 1× resazurin were used as blanks.
# Following transfection, the cells were collected from the 6-wells and aliquoted into 96-wells, just before ASO and overnight TLR stimulation (as above described). Similarly, the LL171 cells expressing and ISRE-Luc reporter were treated overnight.
row,Substance,TLR7 400 nM
1,AAU (antisense mA*mA*mU),1.340
2,ACU (antisense mA*mC*mU),1.322
3,AGU (antisense mA*mG*mU),1.025
4,AUA (antisense mA*mU*mA),1.171
5,AUG (mA*mU*mG),0.987
6,AUU (mA*mU*mU),1.221
7,CAU (mC*mA*mU),1.288
8,CCU (mC*mC*mU),1.210
9,CGU (mC*mG*mU),1.372
10,CUA (mC*mU*mA),1.388
11,CUC (mC*mU*mC),1.288
12,CUG (mC*mU*mG),1.405
13,GCU (mG*mC*mU),1.339
14,GGU (mG*mG*mU),0.938

# Same assay, conditions: 3mer 2'OMe ASO at 2 uM; HEK-TLR7; value relative to Ligand only = 1.000, NT = 0.000
row,Substance,TLR7 2 uM
1,AAU (antisense mA*mA*mU),0.888
2,ACU (antisense mA*mC*mU),0.916
3,AGU (antisense mA*mG*mU),0.952
4,AUA (antisense mA*mU*mA),0.905
5,AUG (mA*mU*mG),0.602
6,AUU (mA*mU*mU),0.700
7,CAU (mC*mA*mU),0.995
8,CCU (mC*mC*mU),0.880
9,CGU (mC*mG*mU),0.963
10,CUA (mC*mU*mA),0.953
11,CUC (mC*mU*mC),0.984
12,CUG (mC*mU*mG),0.804
13,GCU (mG*mC*mU),0.852
14,GGU (mG*mG*mU),0.847

# Same assay, conditions: ASO 100 nM; relative to R848 only, given as fraction
row,Substance,TLR7 100 nM (averaged NF-κB-Luciferase level relative to R848 condition)
1,"ACACTTCGTGGGGTCC (antisense; LNA-modified, pattern not given here) [HPRT LNA-665 V1]",0.548
2,"CAACACTTCGTGGGGT (antisense; LNA-modified, pattern not given here) [HPRT LNA-667 V1]",0.663
3,"CCAAGATCAGCAGTCT (antisense; LNA-modified, pattern not given here) [CTNN2B-2341 LNA KL]",0.882
4,"CCATCCATGAGGTCCT (antisense; LNA-modified, pattern not given here) [CTNN2B-2545 LNA V1]",0.992
5,"GATAGCACCTTCAGCA (antisense; LNA-modified, pattern not given here) [CTNN2B-1294 LNA KL]",0.434
6,"GCAGGCTCAGTGATGT (antisense; LNA-modified, pattern not given here) [CTNN2B-1642 LNA V1]",0.676
7,"GCATCCACCACGTCGT (antisense; LNA-modified, pattern not given here) [EGFR-3267 LNA V1]",0.555
8,"GCCATCCACTTGATAG (antisense; LNA-modified, pattern not given here) [EGFR-2874 LNA V1]",0.671
9,"GCCATGCTGGCTCGGA (antisense; LNA-modified, pattern not given here) [CAMSAP1-2584 LNA V1]",0.638
10,"GCCATGTTTCTTCTTG (antisense; LNA-modified, pattern not given here) [MB21D1-1248 LNA KL]",0.816
11,"GGCTGGAATCCGAGTT (antisense; LNA-modified, pattern not given here) [EGFR-4705 LNA KL]",0.417
12,"GGTTACGGCTCAGTAT (antisense; LNA-modified, pattern not given here) [CAMSAP1-4295 LNA KL]",0.438
13,"GTATCGAAAGAGTCTG (antisense; LNA-modified, pattern not given here) [EGFR-3908 LNA KL]",0.562
14,"GTCCCCTGTTGACTGG (antisense; LNA-modified, pattern not given here) [HPRT LNA-489 KL]",0.557
15,"GTCTTGGCTTCGTGGA (antisense; LNA-modified, pattern not given here) [MB21D1-522 LNA V1]",0.652
16,"GTGTCTGGAAGCTTCC (antisense; LNA-modified, pattern not given here) [CTNN2B-809 LNA V1]",0.355
17,"GTTCAGTCCTGTCCAT (antisense; LNA-modified, pattern not given here) [HPRT LNA-292 V1]",0.456
18,"TCCAACACTTCGTGGG (antisense; LNA-modified, pattern not given here) [HPRT LNA-669 V1]",0.318
19,"TCGTAGTTGCTTCCTA (antisense; LNA-modified, pattern not given here) [MB21D1-1181 LNA KL]",0.380

# Same assay, conditions: ASO 500 nM; relative to R848 only, given as fraction
row,Substance,TLR7 500 nM (averaged NF-κB-Luciferase level relative to R848 condition)
1,"ACACTTCGTGGGGTCC (antisense; LNA-modified, pattern not given here) [HPRT LNA-665 V1]",0.086
2,"CAACACTTCGTGGGGT (antisense; LNA-modified, pattern not given here) [HPRT LNA-667 V1]",0.476
3,"CCAAGATCAGCAGTCT (antisense; LNA-modified, pattern not given here) [CTNN2B-2341 LNA KL]",0.697
4,"CCATCCATGAGGTCCT (antisense; LNA-modified, pattern not given here) [CTNN2B-2545 LNA V1]",0.644
5,"GATAGCACCTTCAGCA (antisense; LNA-modified, pattern not given here) [CTNN2B-1294 LNA KL]",0.049
6,"GCAGGCTCAGTGATGT (antisense; LNA-modified, pattern not given here) [CTNN2B-1642 LNA V1]",0.189
7,"GCATCCACCACGTCGT (antisense; LNA-modified, pattern not given here) [EGFR-3267 LNA V1]",0.085
8,"GCCATCCACTTGATAG (antisense; LNA-modified, pattern not given here) [EGFR-2874 LNA V1]",0.123
9,"GCCATGCTGGCTCGGA (antisense; LNA-modified, pattern not given here) [CAMSAP1-2584 LNA V1]",0.175
10,"GCCATGTTTCTTCTTG (antisense; LNA-modified, pattern not given here) [MB21D1-1248 LNA KL]",0.021
11,"GGCTGGAATCCGAGTT (antisense; LNA-modified, pattern not given here) [EGFR-4705 LNA KL]",0.041
12,"GGTTACGGCTCAGTAT (antisense; LNA-modified, pattern not given here) [CAMSAP1-4295 LNA KL]",0.140
13,"GTATCGAAAGAGTCTG (antisense; LNA-modified, pattern not given here) [EGFR-3908 LNA KL]",0.113
14,"GTCCCCTGTTGACTGG (antisense; LNA-modified, pattern not given here) [HPRT LNA-489 KL]",0.123
15,"GTCTTGGCTTCGTGGA (antisense; LNA-modified, pattern not given here) [MB21D1-522 LNA V1]",0.056
16,"GTGTCTGGAAGCTTCC (antisense; LNA-modified, pattern not given here) [CTNN2B-809 LNA V1]",0.067
17,"GTTCAGTCCTGTCCAT (antisense; LNA-modified, pattern not given here) [HPRT LNA-292 V1]",0.114
18,"TCCAACACTTCGTGGG (antisense; LNA-modified, pattern not given here) [HPRT LNA-669 V1]",0.249
19,"TCGTAGTTGCTTCCTA (antisense; LNA-modified, pattern not given here) [MB21D1-1181 LNA KL]",0.198

# Same assay, conditions: HEK-TLR7; oligo ~30-50 min before 1 μg/ml R848 overnight; read-out: IC50 (R848 sensing by TLR7)
row,Substance,IC50
1,"T*T*A* G*G*G* T*T*A* G*G*G* T*T*A* G*G*G* T*T*A* G*G*G [A151, reference compound]",132 nM
